# In patent US20250179055A1, “Substituted 2-(pyrrolidine-3-yl)acetic acid derivative, preparation method and use thereof” (INNOVSTONE THERAPEUTICS LIMITED, priority 2023, published 2025):
# Legend:
# [1] = target: Lp(a) assembly in HepG2 cells overexpressing ApoA protein (Homo sapiens (Human), UniProt P08519); assay: ELISA assay on screening Lp(a) assembly inhibition; assay type: cell-based; details: HepG2 cells overexpressing ApoA protein, 24 h, ELISA of supernatant
# Description: Test Example 1 and Methods of ELISA Assay on Screening Lp(a) Assembly Inhibition
# • 1) Preheated the culture media, DPBS, and pancreatin in a 37° C. water bath in advance. • 2) Digested cells with pancreatin, transferred the cell suspension to a 15 mL centrifuge tube, and centrifuged at 1000 rpm for 5 min. • 3) Resuspended the cells with culture media and transferred the cell suspension to a new T75 cell culture flask. • 4) Cultured at 37° C. in a 5% CO2 incubator.
# • 1) Seeded HepG2 cells overexpressing of ApoA protein into a 96-well plate at 100 μL per well and incubated overnight for attachment. • 2) Replaced with fresh culture media the next day, then added diluted compounds, and cultured the cell plate in a 5% CO2, 37° C. incubator for 24 h.
# • 1) Added 10 μL of 1.5 M EACA to each well. • 2) Centrifuged at 1000 rpm for 1 min, and transferred 100 μL of cell culture supernatant to a pre-coated ELISA plate.
# • 1) Added 100 μL of capture antibody to each well of a pre-coated ELISA plate and incubated overnight at 25° C. • 2) Added 300 μL of washing solution to each well and washed 5 times for 1 min each time. • 3) Added 100 μL of blocking solution to each well and incubated at 25° C. for 2 h. • 4) Added 300 μL of washing solution to each well and washed 5 times for 1 min each time. • 5) Added 100 μL of sample to each well and incubated at 25° C. for 1 h. • 6) Added 300 μL of washing solution to each well and washed 5 times for 1 min each time. • 7) Added 100 μL of detection antibody to each well and incubated at 25° C. for 1 h. • 8) Added 300 μL of washing solution to each well and washed 5 times for 1 min each time. • 9) Added 100 μL substrate solution (Color Reagent A: Color Reagent B, 1:1) to each well and incubated for 20 min at 25° C. in the dark. • 10) Added […] of stop solution to each well, gently blowed and sucked several times with the pipette tip, and read within 5 min.
# [formula] • X: cpd concentration • Y: inhibition % • Top and Bottom: Plateaus in same units as Y • log IC50: same log units as X • HillSlope: Slope factor or Hill slope
# serum Lp(a) = assay: Humanized mouse Lp(a) inhibition test; assay type: in vivo, humanized Lp(a) transgenic mouse; details: 5 mg/kg oral once daily for 3 days, blood 8 h after last dose, humanized Lp(a) mice
# Description: The in vivo pharmacodynamics of the compounds in reducing Lp(a) was evaluated in a humanized Lp(a) transgenic mouse model. Lp(a) mice were obtained by crossing mice expressing humanized apoB-100 with mice expressing humanized apo(a) containing 16 Kringle repeats. Female mice aged 8-9 weeks were selected for the test. Housing conditions: standard light cycle (12 h light/12 h dark), temperature 20-25° C., humidity 40-70%, free access to water and normal diet. is One day before the test, mice were divided into vehicle control group and test article group (n=5/group) according to body weight and baseline plasma Lp(a) concentration. Mice were orally administered with vehicle (normal saline, 10 mL/kg) or test compound (prepared with normal saline to 3 or 0.5 mg/mL, each mouse received 10 mL/kg), once daily (9:00 am) for 3 consecutive days, and blood was collected to determine the change of serum Lp(a). Eight hours after the last dose, 10 μL of blood was collected from the tail vein and transferred to a 1.5 mL centrifuge tube containing 90 μL of normal saline, mixed well, and left to stand on ice for 30 min. The above samples were centrifuged at 4° C., 3000 rpm for 10 min, and the supernatant was collected and placed on ice. The Lp(a) concentration in the supernatant was measured by double-antibody sandwich ELISA using an anti-apo(a) capture antibody and an HRP-conjugated anti-ApoB detection antibody, with TMB for color development. The reaction was stopped with 1 N sulfuric acid, and the OD value was read at 450 nm on a Tecan microplate reader. Inhibition rate was calculated for each dosing group. Inhibition rate (%)=(vehicle control group Lp(a) concentration or self pre-dose Lp(a) concentration post-dose Lp(a) concentration)/vehicle control group Lp(a) concentration or self pre-dose Lp(a) concentration*100.
# Sequence of Lp(a) assembly in HepG2 cells overexpressing ApoA protein (P08519 20-2040): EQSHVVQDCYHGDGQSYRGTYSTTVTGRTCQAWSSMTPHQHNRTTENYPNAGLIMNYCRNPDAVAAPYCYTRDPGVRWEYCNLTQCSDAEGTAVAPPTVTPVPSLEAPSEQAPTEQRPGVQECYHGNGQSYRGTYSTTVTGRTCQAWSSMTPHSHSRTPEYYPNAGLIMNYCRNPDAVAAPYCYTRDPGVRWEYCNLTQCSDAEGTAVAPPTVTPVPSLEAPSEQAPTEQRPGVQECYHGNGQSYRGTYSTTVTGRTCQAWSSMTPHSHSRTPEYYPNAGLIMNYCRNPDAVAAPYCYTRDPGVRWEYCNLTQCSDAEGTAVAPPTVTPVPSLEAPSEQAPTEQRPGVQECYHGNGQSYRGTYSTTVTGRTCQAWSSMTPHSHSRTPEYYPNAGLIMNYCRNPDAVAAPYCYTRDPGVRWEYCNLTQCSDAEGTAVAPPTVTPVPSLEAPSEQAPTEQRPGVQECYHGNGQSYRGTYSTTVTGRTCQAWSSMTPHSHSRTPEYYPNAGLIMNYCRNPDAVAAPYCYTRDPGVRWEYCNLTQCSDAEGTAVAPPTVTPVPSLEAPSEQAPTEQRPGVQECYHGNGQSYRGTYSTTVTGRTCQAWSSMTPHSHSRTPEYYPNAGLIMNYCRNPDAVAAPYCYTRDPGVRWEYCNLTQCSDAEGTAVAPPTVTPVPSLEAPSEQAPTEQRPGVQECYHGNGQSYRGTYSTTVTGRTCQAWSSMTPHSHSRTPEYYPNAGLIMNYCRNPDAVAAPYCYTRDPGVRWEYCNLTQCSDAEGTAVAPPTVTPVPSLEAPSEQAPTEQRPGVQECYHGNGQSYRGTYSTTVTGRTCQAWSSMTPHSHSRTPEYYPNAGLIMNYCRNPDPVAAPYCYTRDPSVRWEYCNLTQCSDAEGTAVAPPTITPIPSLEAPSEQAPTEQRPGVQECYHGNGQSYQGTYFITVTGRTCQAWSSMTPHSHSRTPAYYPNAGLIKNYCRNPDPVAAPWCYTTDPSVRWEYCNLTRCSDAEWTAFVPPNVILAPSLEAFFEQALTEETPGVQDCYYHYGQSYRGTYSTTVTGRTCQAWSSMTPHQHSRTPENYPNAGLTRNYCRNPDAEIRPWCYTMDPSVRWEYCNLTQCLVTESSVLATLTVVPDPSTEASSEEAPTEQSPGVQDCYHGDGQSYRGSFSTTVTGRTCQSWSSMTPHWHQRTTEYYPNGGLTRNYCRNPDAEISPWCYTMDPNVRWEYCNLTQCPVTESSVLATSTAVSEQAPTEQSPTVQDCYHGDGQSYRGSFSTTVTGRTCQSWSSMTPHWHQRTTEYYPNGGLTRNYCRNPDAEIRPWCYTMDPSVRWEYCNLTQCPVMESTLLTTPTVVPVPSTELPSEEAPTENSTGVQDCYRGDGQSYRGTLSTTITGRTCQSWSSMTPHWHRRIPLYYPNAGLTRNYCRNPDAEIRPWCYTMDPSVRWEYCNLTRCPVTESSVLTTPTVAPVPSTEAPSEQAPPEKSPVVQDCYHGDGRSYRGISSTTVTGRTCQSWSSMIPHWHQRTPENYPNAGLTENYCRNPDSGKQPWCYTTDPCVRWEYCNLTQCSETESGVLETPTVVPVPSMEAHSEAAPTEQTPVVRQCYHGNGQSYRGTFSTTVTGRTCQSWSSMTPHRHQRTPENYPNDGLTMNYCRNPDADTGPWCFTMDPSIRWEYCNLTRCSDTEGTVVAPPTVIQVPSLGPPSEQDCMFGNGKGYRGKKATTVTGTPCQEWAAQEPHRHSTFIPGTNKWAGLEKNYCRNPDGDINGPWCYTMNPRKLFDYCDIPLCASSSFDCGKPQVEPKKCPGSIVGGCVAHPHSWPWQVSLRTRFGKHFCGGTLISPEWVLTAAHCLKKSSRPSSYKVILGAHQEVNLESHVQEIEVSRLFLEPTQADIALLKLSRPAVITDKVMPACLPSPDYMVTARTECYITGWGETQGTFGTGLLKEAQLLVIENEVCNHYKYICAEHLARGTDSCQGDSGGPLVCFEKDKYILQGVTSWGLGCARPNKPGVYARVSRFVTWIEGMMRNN
IC50 [1] [nM],Structure (SMILES),Lp(a) Inhibition Rate (serum Lp(a)) [%]
1.02,"O=C(O)[C@@H](Cc1cccc(CNC(=O)N(CCOc2cccc(C[C@H](C(=O)O)[C@H]3CCNC3)c2)Cc2cccc(C[C@H](C(=O)O)[C@H]3CCNC3)c2)c1)[C@H]1CCNC1 [Compound 141, (S)-3-(3-(2-(1,3-bis(3-((S)-2-carboxy-2-((R)-pyrrolidin-3-yl)ethyl)benzyl)ureido)ethoxy)phenyl)-2-((R)-pyrrolidin-3-yl)propanoic acid]",–
3.19,"O=C(Cc1cccc(C[C@H](C(=O)O)[C@H]2CCNC2)c1)NCCOc1cccc(C[C@H](C(=O)O)[C@H]2CCNC2)c1 [Compound 142, (S)-3-(3-(2-((2-(3-((S)-2-carboxy-2-((R)-pyrrolidin-3-yl)ethyl)phenoxy)ethyl)amino)-2-oxoethyl)phenyl)-2-((R)-pyrrolidin-3-yl)propanoic acid]",–
1.18,"O=C(O)[C@@H](Cc1noc2cc(CN(Cc3ccc4c(C[C@H](C(=O)O)[C@H]5CCNC5)noc4c3)Cc3ccc4c(C[C@H](C(=O)O)[C@H]5CCNC5)noc4c3)ccc12)[C@H]1CCNC1 [Compound 144, (2S,2′S,2″S)-3,3′,3″-((nitrilotris(methylene))tris(benzo[d]isoxazole-6,3-diyl))tris(2-((R)-pyrrolidin-3-yl)propanoic acid)]",–
1.72,"O=C(O)[C@@H](Cc1cccc(COC(=O)N(CCOc2cccc(C[C@H](C(=O)O)[C@H]3CCNC3)c2)Cc2cccc(C[C@H](C(=O)O)[C@H]3CCNC3)c2)c1)[C@H]1CCNC1 [Compound 145, (S)-3-(3-(2-((3-((S)-2-carboxy-2-((R)-pyrrolidin-3-yl)ethyl)benzyl)(((3-((S)-2-carboxy-2-((R)-pyrrolidin-3-yl)ethyl)benzyl)oxy)carbonyl)amino)ethoxy)phenyl)-2-((R)-pyrrolidin-3-yl)propanoic acid]",–
0.93,"O=C(O)[C@@H](Cc1cccc(CC(=O)N(CCNc2cccc(C[C@H](C(=O)O)[C@H]3CCNC3)c2)Cc2cccc(C[C@H](C(=O)O)[C@H]3CCNC3)c2)c1)[C@H]1CCNC1 [Compound 146, (S)-3-(3-(2-((3-((S)-2-carboxy-2-((R)-pyrrolidin-3-yl)ethyl)benzyl)(2-((3-((S)-2-carboxy-2-((R)-pyrrolidin-3-yl)ethyl)phenyl)amino)ethyl)amino)-2-oxoethyl)phenyl)-2-((R)-pyrrolidin-3-yl)propanoic acid]",–
0.86,"O=C(O)[C@@H](Cc1cccc(CCC(=O)N(CCNc2cccc(C[C@H](C(=O)O)[C@H]3CCNC3)c2)Cc2cccc(C[C@H](C(=O)O)[C@H]3CCNC3)c2)c1)[C@H]1CCNC1 [Compound 147, (S)-3-(3-(3-((3-((S)-2-carboxy-2-((R)-pyrrolidin-3-yl)ethyl)benzyl)(2-((3-((S)-2-carboxy-2-((R)-pyrrolidin-3-yl)ethyl)phenyl)amino)ethyl)amino)-3-oxopropyl)phenyl)-2-((R)-pyrrolidin-3-yl)propanoic acid]",–
1.5,"O=C(O)[C@@H](Cc1cccc(CCC(=O)N(CCOc2cccc(C[C@H](C(=O)O)[C@H]3CCNC3)c2)CCOc2cccc(C[C@H](C(=O)O)[C@H]3CCNC3)c2)c1)[C@H]1CCNC1 [Compound 148, (2S,2′S)-3,3′-(((((3-(3-((S)-2-carboxy-2-((R)-pyrrolidin-3-yl)ethyl)phenyl)propanoyl)azanediyl)bis(ethane-2,1-diyl))bis(oxy))bis(3,1-phenylene))bis(2-((R)-pyrrolidin-3-yl)propanoic acid)]",–
2.53,"O=C(O)[C@@H](Cc1cccc(OCc2cc(COc3cccc(C[C@H](C(=O)O)[C@H]4CCNC4)c3)cc(COc3cccc(C[C@H](C(=O)O)[C@H]4CCNC4)c3)c2)c1)[C@H]1CCNC1 [Compound 149, (2S,2′S,2″S)-3,3′,3″-(((benzene-1,3,5-triyltris(methylene))tris(oxy))tris(benzene-3,1-diyl))tris(2-((R)-pyrrolidin-3-yl)propanoic acid)]",–
2.91,"O=C(O)[C@@H](Cc1cncc(CC(=O)N(CCOc2cncc(C[C@H](C(=O)O)[C@H]3CCNC3)c2)Cc2cncc(C[C@H](C(=O)O)[C@H]3CCNC3)c2)c1)[C@H]1CCNC1 [Compound 153, (S)-3-(5-(2-(2-(5-((S)-2-carboxy-2-((R)-pyrrolidin-3-yl)ethyl)pyridin-3-yl)-N-((5-((S)-2-carboxy-2-((R)-pyrrolidin-3-yl)ethyl)pyridin-3-yl)methyl)acetamido)ethoxy)pyridin-3-yl)-2-((R)-pyrrolidin-3-yl)propanoic acid]",–
1.65,"O=C(O)[C@@H](Cc1cccc(CC(=O)N(CCSc2cccc(C[C@H](C(=O)O)[C@H]3CCNC3)c2)Cc2cccc(C[C@H](C(=O)O)[C@H]3CCNC3)c2)c1)[C@H]1CCNC1 [Compound 158, (S)-3-(3-(2-((3-((S)-2-carboxy-2-((R)-pyrrolidin-3-yl)ethyl)benzyl)(2-((3-((S)-2-carboxy-2-((R)-pyrrolidin-3-yl)ethyl)phenyl)thio)ethyl)amino)-2-oxoethyl)phenyl)-2-((R)-pyrrolidin-3-yl)propanoic acid]",–
–,"O=C(O)[C@@H](Cc1cccc(CCN(CCOc2cccc(C[C@H](C(=O)O)[C@H]3CCNC3)c2)C(=O)Oc2cccc(C[C@H](C(=O)O)[C@H]3CCNC3)c2)c1)[C@H]1CCNC1 [Compound 162, (S)-3-(3-(2-((3-((S)-2-carboxy-2-((R)-pyrrolidin-3-yl)ethyl)phenethyl)((3-((S)-2-carboxy-2-((R)-pyrrolidin-3-yl)ethyl)phenoxy)carbonyl)amino)ethoxy)phenyl)-2-((R)-pyrrolidin-3-yl)propanoic acid]",79
–,"O=C(O)[C@@H](Cc1cccc(OCCN(CCOc2cccc(C[C@H](C(=O)O)[C@H]3CCNC3)c2)C(=O)Oc2cccc(C[C@H](C(=O)O)[C@H]3CCNC3)c2)c1)[C@H]1CCNC1 [Compound 163, (2S,2′S)-3,3′-((((((3-((S)-2-carboxy-2-((R)-pyrrolidin-3-yl)ethyl)phenoxy)carbonyl)azanediyl)bis(ethane-2,1-diyl))bis(oxy))bis(3,1-phenylene))bis(2-((R)-pyrrolidin-3-yl)propanoic acid)]",81
–,"O=C(O)[C@@H](Cc1cccc(CN(CCOc2cccc(C[C@H](C(=O)O)[C@H]3CCNC3)c2)C(=O)Cc2cc(C[C@H](C(=O)O)[C@H]3CCNC3)cs2)c1)[C@H]1CCNC1 [Compound 178, ((S)-3-(5-(2-((3-((S)-2-carboxy-2-((R)-pyrrolidin-3-yl)ethyl)benzyl)(2-(3-((S)-2-carboxy-2-((R)-pyrrolidin-3-yl)ethyl)phenoxy)ethyl)amino)-2-oxoethyl)thiophen-3-yl)-2-((R)-pyrrolidin-3-yl)propanoic acid)]",84
1.52,"O=C(O)[C@@H](Cc1cccc(CC(=O)N(CCOc2cccc(C[C@H](C(=O)O)[C@@H]3CCNC3)c2)Cc2cccc(C[C@H](C(=O)O)[C@@H]3CCNC3)c2)c1)[C@@H]1CCNC1 [Compound 210, (S)-3-(3-(2-((3-((S)-2-carboxy-2-((S)-pyrrolidin-3-yl)ethyl)benzyl)(2-(3-((S)-2-carboxy-2-((S)-pyrrolidin-3-yl)ethyl)phenoxy)ethyl)amino)-2-oxoethyl)phenyl)-2-((S)-pyrrolidin-3-yl)propanoic acid]",–
